Test system: female subjects with normal hepatic function, mild, moderate or severe hepatic impairment
Assay: Safety and tolerability (TEAEs, clinical laboratory, vital signs, physical examination) after a single oral dose of 20 mg E4 monohydrate in the hepatic impairment study
Assay type: in vivo, human
Conditions: for TEAE by severity: Vascular disorders, severity Mild / TEAE: Back pain / TEAE: Diarrhea / TEAE: Gastrointestinal disorders / TEAE: General disorders and administration site conditions / TEAE: Haemarthrosis / TEAE: Headache / TEAE: Hypertension / TEAE: Musculoskeletal and connective tissue disorders / TEAE: Nervous system disorders / TEAE: Pain in extremity / TEAE: Pancreatitis / TEAE: Pyrexia / TEAE: Renal and urinary disorders / TEAE: Renal impairment / TEAE: Total Subjects with at Least One TEAE / TEAE: Vascular disorders / TEAE by severity: Back pain, severity Mild / TEAE by severity: Back pain, severity Moderate / TEAE by severity: Diarrhea, severity Mild / TEAE by severity: Diarrhea, severity Moderate / TEAE by severity: Gastrointestinal disorders, severity Mild / TEAE by severity: Gastrointestinal disorders, severity Moderate / TEAE by severity: General disorders and administration site conditions, severity Mild / TEAE by severity: Haemarthrosis, severity Mild / TEAE by severity: Headache, severity Mild / TEAE by severity: Headache, severity Moderate / TEAE by severity: Hypertension, severity Mild / TEAE by severity: Musculoskeletal and connective tissue disorders, severity Mild / TEAE by severity: Musculoskeletal and connective tissue disorders, severity Moderate / TEAE by severity: Nervous system disorders, severity Mild / TEAE by severity: Nervous system disorders, severity Moderate / TEAE by severity: Pain in extremity, severity Mild / TEAE by severity: Pancreatitis, severity Moderate / TEAE by severity: Pyrexia, severity Mild / TEAE by severity: Renal and urinary disorders, severity Mild / TEAE by severity: Renal impairment, severity Mild: single oral 20 mg
Description: This was a Phase 1, multi-centre, open-label, PK, and safety study of a single oral dose of 20 mg E4 monohydrate in female subjects with normal hepatic function (Group 1), mild hepatic impairment (Group 2), moderate hepatic impairment (Group 3), and severe hepatic impairment (Group 4), as defined using the Child-Pugh classification at Screening.
Safety and tolerability assessments consisted of treatment-emergent AEs (TEAEs), clinical laboratory, vital signs, physical examination, and gynecological examination. Assessments were performed in accordance with Table 2 and Table 3 in Section 2.5.1.
AEs/TEAEs were recorded after signing of the ICF until completion of the follow up visit. Any clinically significant observations in results of clinical laboratory, vital signs, or physical examinations were recorded as AEs.
A TEAE is defined as any event not present prior to administration of the study drug or any event already present that worsens in either severity or frequency following exposure to the study drug.
The below listed tests were to be performed by the local laboratories at time points indicated in the Schedule of Assessments (Table 2).
Systolic and diastolic blood pressure and pulse were recorded after the subject had been resting for at least 5 minutes in the supine position at time points indicated in the Schedule of Assessments (Table 2). These assessments were made using an automated device. Body temperature and respiratory rate were measured subsequently.
A complete physical examination consisting of a review of all body systems was performed at time points indicated in the Schedule of Assessments (Table 2). A symptom-directed physical examination could be conducted at any time per Investigator's discretion.
2.6.2.2 Evaluation of Safety and Tolerability Safety and tolerability were assessed through TEAEs, clinical laboratory, vital signs, and physical examination findings, and any other parameter that was relevant for safety assessment.
A listing of all individual AEs is provided. Summary tables of TEAEs are presented by system organ class (SOC) based on the MedDRA terminology list (preferred terms): a table containing the number of subjects experiencing AEs by hepatic function, a table containing the number of subjects experiencing SAEs by hepatic function (if applicable), a table by hepatic function and relationship, and a table by hepatic function and severity.

[1] = Normal hepatic function (N = 8)
[2] = Severe hepatic impairment (N = 8)

C[C@]12CC[C@@H]3c4ccc(O)cc4CC[C@H]3[C@@H]1[C@@H](O)[C@@H](O)[C@@H]2O [E4 monohydrate, estetrol monohydrate]
TEAE by severity: Vascular disorders, severity Mild [1]: 0 (0.0) n (%)
TEAE: Back pain [1]: 1 (12.5) n (%)
TEAE: Diarrhea [1]: 1 (12.5) n (%)
TEAE: Gastrointestinal disorders [1]: 2 (25.0) n (%)
TEAE: General disorders and administration site conditions [1]: 0 (0.0) n (%)
TEAE: Haemarthrosis [1]: 0 (0.0) n (%)
TEAE: Headache [1]: 0 (0.0) n (%)
TEAE: Hypertension [1]: 0 (0.0) n (%)
TEAE: Musculoskeletal and connective tissue disorders [1]: 1 (12.5) n (%)
TEAE: Nervous system disorders [1]: 0 (0.0) n (%)
TEAE: Pain in extremity [1]: 0 (0.0) n (%)
TEAE: Pancreatitis [1]: 1 (12.5) n (%)
TEAE: Pyrexia [1]: 0 (0.0) n (%)
TEAE: Renal and urinary disorders [1]: 0 (0.0) n (%)
TEAE: Renal impairment [1]: 0 (0.0) n (%)
TEAE: Total Subjects with at Least One TEAE [1]: 2 (25.0) n (%)
TEAE: Vascular disorders [1]: 0 (0.0) n (%)
TEAE by severity: Back pain, severity Mild [2]: 1 (12.5) n (%)
TEAE by severity: Back pain, severity Moderate [2]: 0 (0.0) n (%)
TEAE by severity: Diarrhea, severity Mild [2]: 0 (0.0) n (%)
TEAE by severity: Diarrhea, severity Moderate [2]: 0 (0.0) n (%)
TEAE by severity: Gastrointestinal disorders, severity Mild [2]: 0 (0.0) n (%)
TEAE by severity: Gastrointestinal disorders, severity Moderate [2]: 0 (0.0) n (%)
TEAE by severity: General disorders and administration site conditions, severity Mild [2]: 0 (0.0) n (%)
TEAE by severity: Haemarthrosis, severity Mild [2]: 0 (0.0) n (%)
TEAE by severity: Headache, severity Mild [2]: 0 (0.0) n (%)
TEAE by severity: Headache, severity Moderate [2]: 0 (0.0) n (%)
TEAE by severity: Hypertension, severity Mild [2]: 0 (0.0) n (%)
TEAE by severity: Musculoskeletal and connective tissue disorders, severity Mild [2]: 1 (12.5) n (%)
TEAE by severity: Musculoskeletal and connective tissue disorders, severity Moderate [2]: 0 (0.0) n (%)
TEAE by severity: Nervous system disorders, severity Mild [2]: 0 (0.0) n (%)
TEAE by severity: Nervous system disorders, severity Moderate [2]: 0 (0.0) n (%)
TEAE by severity: Pain in extremity, severity Mild [2]: 0 (0.0) n (%)
TEAE by severity: Pancreatitis, severity Moderate [2]: 0 (0.0) n (%)
TEAE by severity: Pyrexia, severity Mild [2]: 0 (0.0) n (%)
TEAE by severity: Renal and urinary disorders, severity Mild [2]: 1 (12.5) n (%)
TEAE by severity: Renal impairment, severity Mild [2]: 1 (12.5) n (%)
TEAE by severity: Vascular disorders, severity Mild [2]: 0 (0.0) n (%)
TEAE: Back pain [2]: 1 (12.5) n (%)
TEAE: Diarrhea [2]: 0 (0.0) n (%)
TEAE: Gastrointestinal disorders [2]: 0 (0.0) n (%)
TEAE: General disorders and administration site conditions [2]: 0 (0.0) n (%)
TEAE: Haemarthrosis [2]: 0 (0.0) n (%)
TEAE: Headache [2]: 0 (0.0) n (%)
TEAE: Hypertension [2]: 0 (0.0) n (%)
TEAE: Musculoskeletal and connective tissue disorders [2]: 1 (12.5) n (%)
TEAE: Nervous system disorders [2]: 0 (0.0) n (%)
TEAE: Pain in extremity [2]: 0 (0.0) n (%)
TEAE: Pancreatitis [2]: 0 (0.0) n (%)
TEAE: Pyrexia [2]: 0 (0.0) n (%)
TEAE: Renal and urinary disorders [2]: 1 (12.5) n (%)
TEAE: Renal impairment [2]: 1 (12.5) n (%)
TEAE: Total Subjects with at Least One TEAE [2]: 1 (12.5) n (%)
TEAE: Vascular disorders [2]: 0 (0.0) n (%)
TEAE by severity: Back pain, severity Mild (Total (N = 32)): 1 (3.1) n (%)
TEAE by severity: Back pain, severity Moderate (Total (N = 32)): 1 (3.1) n (%)
TEAE by severity: Diarrhea, severity Mild (Total (N = 32)): 2 (6.3) n (%)
TEAE by severity: Diarrhea, severity Moderate (Total (N = 32)): 1 (3.1) n (%)
TEAE by severity: Gastrointestinal disorders, severity Mild (Total (N = 32)): 2 (6.3) n (%)
TEAE by severity: Gastrointestinal disorders, severity Moderate (Total (N = 32)): 2 (6.3) n (%)
TEAE by severity: General disorders and administration site conditions, severity Mild (Total (N = 32)): 1 (3.1) n (%)
TEAE by severity: Haemarthrosis, severity Mild (Total (N = 32)): 1 (3.1) n (%)
TEAE by severity: Headache, severity Mild (Total (N = 32)): 1 (3.1) n (%)
TEAE by severity: Headache, severity Moderate (Total (N = 32)): 1 (3.1) n (%)
TEAE by severity: Hypertension, severity Mild (Total (N = 32)): 2 (6.3) n (%)
TEAE by severity: Musculoskeletal and connective tissue disorders, severity Mild (Total (N = 32)): 3 (9.4) n (%)
TEAE by severity: Musculoskeletal and connective tissue disorders, severity Moderate (Total (N = 32)): 1 (3.1) n (%)
TEAE by severity: Nervous system disorders, severity Mild (Total (N = 32)): 1 (3.1) n (%)
TEAE by severity: Nervous system disorders, severity Moderate (Total (N = 32)): 1 (3.1) n (%)
TEAE by severity: Pain in extremity, severity Mild (Total (N = 32)): 1 (3.1) n (%)
TEAE by severity: Pancreatitis, severity Moderate (Total (N = 32)): 1 (3.1) n (%)
TEAE by severity: Pyrexia, severity Mild (Total (N = 32)): 1 (3.1) n (%)
TEAE by severity: Renal and urinary disorders, severity Mild (Total (N = 32)): 1 (3.1) n (%)
TEAE by severity: Renal impairment, severity Mild (Total (N = 32)): 1 (3.1) n (%)
TEAE by severity: Vascular disorders, severity Mild (Total (N = 32)): 2 (6.3) n (%)
TEAE: Back pain (Total (N = 32)): 2 (6.3) n (%)
TEAE: Diarrhea (Total (N = 32)): 3 (9.4) n (%)
TEAE: Gastrointestinal disorders (Total (N = 32)): 4 (12.5) n (%)
TEAE: General disorders and administration site conditions (Total (N = 32)): 1 (3.1) n (%)
TEAE: Haemarthrosis (Total (N = 32)): 1 (3.1) n (%)
TEAE: Headache (Total (N = 32)): 2 (6.3) n (%)
TEAE: Hypertension (Total (N = 32)): 2 (6.3) n (%)
TEAE: Musculoskeletal and connective tissue disorders (Total (N = 32)): 4 (12.5) n (%)
TEAE: Nervous system disorders (Total (N = 32)): 2 (6.3) n (%)
TEAE: Pain in extremity (Total (N = 32)): 1 (3.1) n (%)
TEAE: Pancreatitis (Total (N = 32)): 1 (3.1) n (%)
TEAE: Pyrexia (Total (N = 32)): 1 (3.1) n (%)
TEAE: Renal and urinary disorders (Total (N = 32)): 1 (3.1) n (%)
TEAE: Renal impairment (Total (N = 32)): 1 (3.1) n (%)
TEAE: Total Subjects with at Least One TEAE (Total (N = 32)): 9 (28.1) n (%)
TEAE: Vascular disorders (Total (N = 32)): 2 (6.3) n (%)
number of TEAEs considered related to the study drug (diarrhea, mild intensity, 1 subject in the moderate group): 1 TEAE
subjects reporting TEAE diarrhea (normal hepatic function group): 1 subjects
overall safety and tolerability (single oral dose of 20 mg, normal hepatic function, mild, moderate or severe hepatic impairment): safe and well tolerated
deaths, SAEs, other significant AEs (whole study, monohydrate): No deaths, SAEs, or other significant AEs occurred

— patent US20260207623A1, “USE OF ESTETROL IN HEPATICALLY IMPAIRED PATIENTS” (ESTETRA SRL, priority 2022, published 2026)
